Data taken from patent US9376442B2, “Methylpyrrolopyrimidinecarboxamides” (Takeda GmbH, priority 2009, dated 2016).

Key:
[1] = target: T1, PDE5A1 (Homo sapiens, UniProt O76074); test: Inhibition of type 5 phosphodiesterase (PDE5) activity, modified SPA test with human platelet lysate; format: biochemical; settings: 0.5 μM cGMP, read-out: PDE5A1 inhibitory values [measured as −log IC50 (mol/l)] (converted)
T1 construct: from tissue; host or cells: human platelets from fresh donor blood (10,000 x g supernatant of sonicated lysate)
How it was run: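 Scintillation proximity assay with [3H]cGMP tracer at 0.5 μM total cGMP, stopped after 15 min with beads containing IBMX. PDE3 and PDE2 activities suppressed with motapizone (1 μM) and a PDE2 inhibitor (10 nM). Human platelet supernatant served as the enzyme, with compound preincubated 5 min at 37° C; IC50 values from concentration-effect curves.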

[2] = target: T2, PDE4B1 (Homo sapiens, UniProt Q07343); test: Inhibition of type 4 phosphodiesterase (PDE4) activity, modified SPA test with recombinant PDE4B1 expressed in SF21 insect cells; format: biochemical; settings: recombinant PDE4B1, 0.5 μM cAMP, read-out: PDE4B1 inhibitory values [measured as −log IC50 (mol/l)] (converted)
T2 construct: made in house; host or cells: SF21 insect cells (baculovirus; pCRBac vector), 1000 x g supernatant of homogenate
Protocol: Method for Measuring Inhibition of the Type 4 Phosphodiesterase (PDE4) Activity:
The PDE4B1 (GB no. L20966) was a gift of Prof. M. Conti (Stanford University, USA). It was amplified from the original plasmid (pCMV5) via PCR with primers Rb18 (5′-[…]-3′) and Rb10 (5′-[…]-3′) and cloned into the pCRBac vector (Invitrogen, Groningen, NL).
The recombinant baculovirus was prepared by means of homologous recombination in SF9 insect cells. The expression plasmids were cotransfected with Baculo-Gold DNA (Pharmingen, Hamburg) using a standard protocol (Pharmingen, Hamburg). Wt virus-free recombinant virus supernatants were selected using plaque assay methods. After that, high-titre virus supernatants were prepared by amplifying 3 times. PDE4B1 was expressed in SF21 cells by infecting 2×10^6 cells/ml with an MOI (multiplicity of infection) between 1 and 10 in the serum-free medium Insect Express Sf9-S2 (PAA, Pasching, Austria). The cells were cultured at 28° C. for 48-72 hours, after which they were pelleted for 5-10 min at 1000×g and 4° C.
The SF21 insect cells were resuspended, at a concentration of approx. 10^7 cells/ml, in ice-cold (4° C.) homogenization buffer (20 mM Tris, pH 8.2, containing the following additions: 140 mM NaCl, 3.8 mM KCl, 1 mM EGTA, 1 mM MgCl2, 10 mM (3-mercaptoethanol, 2 mM benzamidine, 0.4 mM Pefablock, 10 μM leupeptin, 10 μM pepstatin A, 5 μM trypsin inhibitor) and disrupted by ultrasonication. The homogenate was then centrifuged for 10 min at 1000×g and the supernatant was stored at −80° C. until subsequent use (see below). The protein content was determined by the Bradford method (BioRad, Munich) using BSA as the standard.
PDE4B1 activity was inhibited by the compounds according to the present subject matter in a modified SPA (scintillation proximity assay) test, supplied by Amersham Biosciences (see procedural instructions “phosphodiesterase [3H]cAMP SPA enzyme assay, code TRKQ 7090”), carried out in 96-well microtitre plates (MTP's). The test volume is 100 μl and contains 20 mM Tris buffer (pH 7.4), 0.1 mg/ml of BSA, 5 mM Mg^2+, 0.5 μM cAMP (including about 50,000 cpm of [3H]cAMP), 1 μl of the respective substance dilution in DMSO and sufficient recombinant PDE (1000×g supernatant, see above) to ensure that 10-20% of the cAMP is converted under the said experimental conditions. […] After a preincubation of 5 min at 37° C., the reaction is started by adding the substrate (cAMP) and the assays are incubated for a further 15 min; after that, they are stopped by adding SPA beads (50 μl). In accordance with the manufacturer's instructions, the SPA beads had previously been resuspended in water, but were then diluted 1:3 (v/v) in water; the diluted solution also contains 3 mM IBMX to ensure a complete PDE activity stop. After the beads have been sedimented (>30 min), the MTP's are analyzed in commercially available luminescence detection devices. The corresponding IC50 values of the compounds for the inhibition of PDE4B1 activity are determined from the concentration-effect curves by means of non-linear regression.

T2 sequence (Q07343 whole entry): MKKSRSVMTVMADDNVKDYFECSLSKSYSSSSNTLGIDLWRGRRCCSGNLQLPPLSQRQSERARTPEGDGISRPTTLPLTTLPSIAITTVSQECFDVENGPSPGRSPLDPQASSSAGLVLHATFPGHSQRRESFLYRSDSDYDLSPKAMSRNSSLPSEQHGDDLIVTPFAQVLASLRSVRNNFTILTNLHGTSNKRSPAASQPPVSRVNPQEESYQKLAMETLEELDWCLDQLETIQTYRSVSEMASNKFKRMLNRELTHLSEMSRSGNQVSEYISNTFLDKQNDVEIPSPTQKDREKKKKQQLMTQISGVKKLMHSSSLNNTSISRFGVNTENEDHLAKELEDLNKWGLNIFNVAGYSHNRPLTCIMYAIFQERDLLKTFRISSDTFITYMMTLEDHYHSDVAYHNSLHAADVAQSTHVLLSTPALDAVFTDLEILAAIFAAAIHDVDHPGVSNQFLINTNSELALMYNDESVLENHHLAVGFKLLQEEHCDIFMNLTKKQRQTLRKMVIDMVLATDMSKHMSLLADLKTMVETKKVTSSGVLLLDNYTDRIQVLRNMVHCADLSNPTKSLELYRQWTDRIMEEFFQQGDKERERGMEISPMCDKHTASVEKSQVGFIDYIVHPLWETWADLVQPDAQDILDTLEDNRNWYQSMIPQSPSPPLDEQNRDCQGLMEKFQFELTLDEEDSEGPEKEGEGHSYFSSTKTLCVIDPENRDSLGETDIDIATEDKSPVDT

Row | SMILES | IC50 [1] [nM] | IC50 [2] [nM]
1 | COCC(=O)N1CCC(NC(=O)c2c(C)[nH]c3c(-c4cc(C(F)(F)F)ccc4OCC4CC4)ncnc23)CC1 [Example E92, 4-[2-(Cyclopropylmethoxy)-5-(trifluoromethyl)phenyl]-N-[1-(methoxyacetyl)piperidin-4-yl]-6-methyl-5H-pyrrolo[3,2-d]pyrimidine-7-carboxamide] | < 1 | < 100
2 | CCc1ccc(OCC2CC2)c(-c2ncnc3c(C(=O)N[C@@H]4CN(C(=O)COC)C[C@H]4O)c(C)[nH]c23)c1 (relative stereo) [Example E156, 4-[2-(Cyclopropylmethoxy)-5-ethylphenyl]-N-[(3R*,4R*)-4-hydroxy-1-(methoxyacetyl)pyrrolidin-3-yl]-6-methyl-5H-pyrrolo[3,2-d]pyrimidine-7-carboxamide] | 1 to 10 | 100 to 1000
3 | CCC(=O)N[C@@H]1CC[C@@H](NC(=O)c2c(C)[nH]c3c(-c4cc(C(F)F)ccc4OCC4CC4)ncnc23)[C@H](F)C1 (relative stereo) [Example P160, 4-[2-(Cyclopropylmethoxy)-5-(difluoromethyl)phenyl]-N-[(1R*,2R*,4R*)-2-fluoro-4-(propanoylamino)cyclohexyl]-6-methyl-5H-pyrrolo[3,2-d]pyrimidine-7-carboxamide] | < 1 | < 100
4 | COCC(=O)N[C@H]1CC[C@H](NC(=O)c2c(C)[nH]c3c(-c4cc(C(F)(F)F)ccc4OCC4CC4)ncnc23)CC1 [Example E95, 4-[2-(Cyclopropylmethoxy)-5-(trifluoromethyl)phenyl]-N-{trans-4-[(methoxyacetyl)amino]cyclohexyl}-6-methyl-5H-pyrrolo[3,2-d]pyrimidine-7-carboxamide] | < 1 | < 100
5 | COCC(=O)N1CCC(NC(=O)c2c(C)[nH]c3c(-c4cc(OC)ccc4OCC4CC4)ncnc23)CC1 [Example E68, 4-[2-(Cyclopropylmethoxy)-5-methoxyphenyl]-N-[1-(methoxyacetyl)piperidin-4-yl]-6-methyl-5H-pyrrolo[3,2-d]pyrimidine-7-carboxamide] | < 1 | 100 to 1000
6 | CC(=O)N1CCC(NC(=O)c2c(C)[nH]c3c(-c4cc(F)ccc4OCC4CC4)ncnc23)CC1 [Example E37, 4-(2-Cyclopropylmethoxy-5-fluoro-phenyl)-6-methyl-5H-pyrrolo[3,2-d]pyrimidine-7-carboxylic acid (1-acetyl-piperidin-4-yl)-amide] | < 1 | 100 to 1000
7 | CCC(=O)N[C@H]1CC[C@@H](NC(=O)c2c(C)[nH]c3c(-c4cc(CC)ccc4OCC4CC4)ncnc23)CC1 [Example E152, 4-[2-(Cyclopropylmethoxy)-5-ethylphenyl]-6-methyl-N-[cis-4-(propanoylamino)cyclohexyl]-5H-pyrrolo[3,2-d]pyrimidine-7-carboxamide] | < 1 | 100 to 1000
8 | Cc1ccc(OCC2CC2)c(-c2ncnc3c(C(=O)N[C@H]4CC[C@H](NC(=O)[C@H](C)O)CC4)c(C)[nH]c23)c1 [Example F54, 4-[2-(Cyclopropylmethoxy)-5-methylphenyl]-N-(trans-4-{[(2S)-2-hydroxypropanoyl]amino}cyclohexyl)-6-methyl-5H-pyrrolo[3,2-d]pyrimidine-7-carboxamide] | < 1 | < 100
9 | CCC(=O)N1CCC(NC(=O)c2c(C)[nH]c3c(-c4cc(C)ccc4OCC4CC4)ncnc23)CC1 [Example E82, 4-[2-(Cyclopropylmethoxy)-5-methylphenyl]-6-methyl-N-(1-propanoylpiperidin-4-yl)-5H-pyrrolo[3,2-d]pyrimidine-7-carboxamide] | < 1 | < 100
10 | COCC(=O)N[C@H]1CC[C@H](NC(=O)c2c(C)[nH]c3c(-c4cc(C(F)F)ccc4OCC4CC4)ncnc23)CC1 [Example P8, 4-[2-(Cyclopropylmethoxy)-5-(difluoromethyl)phenyl]-N-{trans-4-[(methoxyacetyl)amino]cyclohexyl}-6-methyl-5H-pyrrolo[3,2-d]pyrimidine-7-carboxamide] | < 1 | < 100
11 | Cc1[nH]c2c(-c3cc(F)ccc3OCC3CC3)ncnc2c1C(=O)N[C@H]1CC[C@@H](NC(=O)[C@H](C)O)CC1 [Example F27, 4-[2-(Cyclopropylmethoxy)-5-fluorophenyl]-N-(cis-4-{[(2S)-2-hydroxypropanoyl]amino}cyclohexyl)-6-methyl-5H-pyrrolo[3,2-d]pyrimidine-7-carboxamide] | 1 to 10 | 100 to 1000
12 | CCc1ccc(OCC2CC2)c(-c2ncnc3c(C(=O)N[C@H]4CC[C@H](NC(C)=O)CC4)c(C)[nH]c23)c1 [Example E148, N-[trans-4-(Acetylamino)cyclohexyl]-4-[2-(cyclopropylmethoxy)-5-ethylphenyl]-6-methyl-5H-pyrrolo[3,2-d]pyrimidine-7-carboxamide] | < 1 | < 100
13 | COCC(=O)N1CCC(NC(=O)c2c(C)[nH]c3c(-c4cc(C)ccc4OCC4CC4)ncnc23)CC1 [Example E83, 4-[2-(cyclopropylmethoxy)-5-methylphenyl]-N-[1-(methoxyacetyl)piperidin-4-yl]-6-methyl-5H-pyrrolo[3,2-d]pyrimidine-7-carboxamide] | < 1 | < 100
14 | CCC(=O)N1C[C@@H](O)[C@H](NC(=O)c2c(C)[nH]c3c(-c4cc(CC)ccc4OCC4CC4)ncnc23)C1 (relative stereo) [Example E155, 4-[2-(Cyclopropylmethoxy)-5-ethylphenyl]-N-[(3R*,4R*)-4-hydroxy-1-propanoylpyrrolidin-3-yl]-6-methyl-5H-pyrrolo[3,2-d]pyrimidine-7-carboxamide] | < 1 | 100 to 1000
15 | CCC(=O)N[C@H]1CC[C@H](NC(=O)c2c(C)[nH]c3c(-c4cc(C(F)F)ccc4OCC4CC4)ncnc23)[C@@H](C)C1 (relative stereo) [Example P140, 4-[2-(Cyclopropylmethoxy)-5-(difluoromethyl)phenyl]-6-methyl-N-[(1S*,2S*,4S*)-2-methyl-4-(propanoylamino)cyclohexyl]-5H-pyrrolo[3,2-d]pyrimidine-7-carboxamide] | < 1 | < 100
16 | Cc1[nH]c2c(-c3cc(F)ccc3OCC3CC3)ncnc2c1C(=O)N[C@H]1CC[C@H](NC(=O)CO)CC1 [Example F25, 4-[2-(Cyclopropylmethoxy)-5-fluorophenyl]-N-[trans-4-(glycoloylamino)cyclohexyl]-6-methyl-5H-pyrrolo[3,2-d]pyrimidine-7-carboxamide] | < 1 | < 100
17 | Cc1[nH]c2c(-c3cc(C(C)C)ccc3OCC3CC3)ncnc2c1C(=O)N[C@H]1CC[C@H](NC(=O)[C@H](C)O)CC1 [Example F100, 4-[2-(Cyclopropylmethoxy)-5-(propan-2-yl)phenyl]-N-(trans-4-{[(2S)-2-hydroxypropanoyl]amino}cyclohexyl)-6-methyl-5H-pyrrolo[3,2-d]pyrimidine-7-carboxamide] | < 1 | 100 to 1000
18 | CC(=O)N[C@H]1CC[C@H](NC(=O)c2c(C)[nH]c3c(-c4cc(C(F)F)ccc4OCC4CC4)ncnc23)CC1 [Example P6, N-[trans-4-(Acetylamino)cyclohexyl]-4-[2-(cyclopropylmethoxy)-5-(difluoromethyl)phenyl]-6-methyl-5H-pyrrolo[3,2-d]pyrimidine-7-carboxamide] | < 1 | < 100
